Assay results taken from patent US20230017045A1, “PYRIDINE AND PYRIMIDINE CARBOXYLATE HERBICIDES AND METHODS OF USE THEREOF” (Dow AgroSciences LLC, priority 2017, published 2023).
Read-outs that look alike come from different tables or passages of the source.

Test system: test plant species
Assay: Post-emergent herbicidal activity test (greenhouse, foliar spray, visual growth reduction)
Format: in vivo
Settings: post-emergence, 336 h, 140 g ai/ha, 14 days after application
How it was run: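 Visual percent injury (0-100) rated 14 d after treatment, relative to nontreated and solvent-blank plants. Test plants at first or second true leaf stage received an overhead track-sprayer application at 187 L/ha. Compounds were formulated in aqueous acetone/DMSO carrier containing crop oil concentrate and X-77 surfactant.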

[1] = ALOMY: blackgrass (Alopecurus myosuroides), read-out: Visual Growth Reduction (%) 14 Days After Application, ALOMY
[2] = AMARE: redroot pigweed (Amaranthus retroflexus), read-out: Visual Growth Reduction (%) 14 Days After Application, AMARE
[3] = AVEFA: wild oat (Avena fatua), read-out: Visual Growth Reduction (%) 14 Days After Application, AVEFA
[4] = CHEAL: lambsquarters (Chenopodium album), read-out: Visual Growth Reduction (%) 14 Days After Application, CHEAL
[5] = CIRAR: canada thistle (Cirsium arvense), read-out: Visual Growth Reduction (%) 14 Days After Application, CIRAR
[6] = CYPES: yellow nutsedge (Cyperus esculentus), read-out: Visual Growth Reduction (%) 14 Days After Application, CYPES
[7] = DIGSA: crabgrass (Digitaria sanguinalis), read-out: Visual Growth Reduction (%) 14 Days After Application, DIGSA
[8] = ECHCG: barnyardgrass (Echinochloa crus-galli), read-out: Visual Growth Reduction (%) 14 Days After Application, ECHCG
[9] = IPOHE: ivy-leaf morning glory (Ipomoea hederacea), read-out: Visual Growth Reduction (%) 14 Days After Application, IPOHE
[10] = KCHSC: kochia (Bassia scoparia), read-out: Visual Growth Reduction (%) 14 Days After Application, KCHSC
[11] = ORYSA: rice (Oryza sativa), read-out: Visual Growth Reduction (%) 14 Days After Application, ORYSA
[12] = SETFA: giant foxtail (Setaria faberi), read-out: Visual Growth Reduction (%) 14 Days After Application, SETFA
[13] = SORVU: grain sorghum (Sorghum vulgare), read-out: Visual Growth Reduction (%) 14 Days After Application, SORVU
[14] = STEME: common chickweed (Stellaria media), read-out: Visual Growth Reduction (%) 14 Days After Application, STEME
[15] = TRZAS: wheat, spring (Triticum aestivum), read-out: Visual Growth Reduction (%) 14 Days After Application, TRZAS

Compound	pest or weed control at 140 g/ha [1]	pest or weed control at 140 g/ha [2]	pest or weed control at 140 g/ha [3]	pest or weed control at 140 g/ha [4]	pest or weed control at 140 g/ha [5]	pest or weed control at 140 g/ha [6]	pest or weed control at 140 g/ha [7]	pest or weed control at 140 g/ha [8]	pest or weed control at 140 g/ha [9]	pest or weed control at 140 g/ha [10]	pest or weed control at 140 g/ha [11]	pest or weed control at 140 g/ha [12]	pest or weed control at 140 g/ha [13]	pest or weed control at 140 g/ha [14]	pest or weed control at 140 g/ha [15]
O=C(O)c1nc(-c2cc3c(cc2Cl)OC(F)(F)O3)ccc1Cl [F126]	0 to 29%	95 to 100%	0 to 29%	85 to 94%	75 to 84%	0 to 29%	85 to 94%	60 to 74%	95 to 100%	60 to 74%	0 to 29%	60 to 74%	75 to 84%	0 to 29%	75 to 84%
O=C(O)c1nc(-c2ccc(SC(F)(F)F)cc2Cl)c(Cl)cc1Cl [F127, 3,5-Dichloro-6-(2-chloro-4-((trifluoromethyl)thio)phenyl) picolinic acid]	0 to 29%	95 to 100%	0 to 29%	75 to 84%	85 to 94%	0 to 29%	60 to 74%	0 to 29%	45 to 59%	75 to 84%	0 to 29%	75 to 84%	60 to 74%	0 to 29%	0 to 29%
COC(=O)c1nc(-c2cc(O)c(Cl)cc2F)ccc1Cl [F128, Methyl 3-chloro-6-(4-chloro-2-fluoro-5-hydroxyphenyl) picolinate]	0 to 29%	0 to 29%	0 to 29%	0 to 29%	0 to 29%	0 to 29%	0 to 29%	0 to 29%	0 to 29%	0 to 29%	0 to 29%	0 to 29%	0 to 29%	0 to 29%	0 to 29%
COC(=O)c1nc(-c2cc(Cl)cnc2OC)ccc1Cl [F129, Methyl 5,5′-dichloro-2′-methoxy-[2,3′-bipyridine-6-carboxylate]	0 to 29%	0 to 29%	0 to 29%	0 to 29%	0 to 29%	0 to 29%	0 to 29%	0 to 29%	0 to 29%	0 to 29%	0 to 29%	0 to 29%	0 to 29%	0 to 29%	0 to 29%
COC(=O)c1nc(-c2ccc(SC(F)(F)F)cc2Cl)c(Cl)cc1Cl [F130, Methyl 3,5-dichloro-6-(2-chloro-4-((trifluoromethyl)thio)phenyl) picolinate]	0 to 29%	85 to 94%	0 to 29%	75 to 84%	75 to 84%	0 to 29%	60 to 74%	0 to 29%	30 to 44%	60 to 74%	0 to 29%	60 to 74%	30 to 44%	0 to 29%	0 to 29%
